Reference: US10266497B2 (ABIDE THERAPEUTICS, INC., priority 2017, dated 2019)

Columns and labels:
MAGL [1] = biological target: T1, MAGL (Homo sapiens, UniProt Q99685); test: In vitro competitive activity-based protein profiling, MAGL, human; details: for inhibition at 1 µM: read-out: MAGL % inh. 1 μM (human)
T1 sequence (Q99685 1-303): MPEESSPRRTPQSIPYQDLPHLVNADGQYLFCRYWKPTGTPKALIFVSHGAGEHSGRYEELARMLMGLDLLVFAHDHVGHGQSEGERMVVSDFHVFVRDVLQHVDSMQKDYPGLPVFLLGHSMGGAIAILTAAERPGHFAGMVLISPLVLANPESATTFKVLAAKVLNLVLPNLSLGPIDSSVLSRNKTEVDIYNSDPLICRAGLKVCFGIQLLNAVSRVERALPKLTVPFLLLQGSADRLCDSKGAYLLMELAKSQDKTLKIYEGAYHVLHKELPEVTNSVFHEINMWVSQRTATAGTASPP

MAGL [2] = biological target: T2, MAGL (Mus musculus, UniProt O35678); test: In vitro competitive activity-based protein profiling, MAGL, mouse; details: read-out: MAGL % inh. 1 μM (mouse)
T2 sequence (O35678 1-303): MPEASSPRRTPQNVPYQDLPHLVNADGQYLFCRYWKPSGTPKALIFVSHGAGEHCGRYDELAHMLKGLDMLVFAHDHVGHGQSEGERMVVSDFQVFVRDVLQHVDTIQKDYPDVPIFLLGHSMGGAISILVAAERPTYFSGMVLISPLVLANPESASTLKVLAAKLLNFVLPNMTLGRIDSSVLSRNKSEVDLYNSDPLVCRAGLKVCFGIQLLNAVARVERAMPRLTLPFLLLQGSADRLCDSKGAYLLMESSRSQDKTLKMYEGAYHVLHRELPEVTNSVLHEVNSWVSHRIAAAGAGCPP

FAAH [3] = biological target: T3, FAAH (Homo sapiens, UniProt O00519); test: In vitro competitive activity-based protein profiling, FAAH, human; details: for inhibition at 1 µM: read-out: FAAH % inh. 1 μM (human)
T3 sequence (O00519 1-579): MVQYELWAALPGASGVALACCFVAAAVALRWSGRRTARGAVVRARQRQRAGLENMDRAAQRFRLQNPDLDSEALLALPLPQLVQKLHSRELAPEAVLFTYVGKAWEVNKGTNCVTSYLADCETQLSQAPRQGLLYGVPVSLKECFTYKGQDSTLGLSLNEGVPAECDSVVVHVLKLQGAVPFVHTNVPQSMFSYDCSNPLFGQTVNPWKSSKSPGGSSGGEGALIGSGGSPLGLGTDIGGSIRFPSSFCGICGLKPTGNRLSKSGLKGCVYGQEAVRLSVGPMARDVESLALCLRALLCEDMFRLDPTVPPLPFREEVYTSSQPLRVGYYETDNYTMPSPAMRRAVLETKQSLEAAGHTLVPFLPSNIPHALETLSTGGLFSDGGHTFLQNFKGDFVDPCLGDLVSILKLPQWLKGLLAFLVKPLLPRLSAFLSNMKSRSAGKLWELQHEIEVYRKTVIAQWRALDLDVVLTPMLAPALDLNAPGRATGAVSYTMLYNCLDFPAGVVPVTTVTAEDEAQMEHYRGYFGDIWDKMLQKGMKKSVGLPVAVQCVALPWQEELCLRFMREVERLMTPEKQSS

FAAH [4] = biological target: T4, FAAH (Mus musculus, UniProt O08914); test: In vitro competitive activity-based protein profiling, FAAH, mouse; details: read-out: FAAH % inh. 1 μM (mouse)
T4 sequence (O08914 1-579): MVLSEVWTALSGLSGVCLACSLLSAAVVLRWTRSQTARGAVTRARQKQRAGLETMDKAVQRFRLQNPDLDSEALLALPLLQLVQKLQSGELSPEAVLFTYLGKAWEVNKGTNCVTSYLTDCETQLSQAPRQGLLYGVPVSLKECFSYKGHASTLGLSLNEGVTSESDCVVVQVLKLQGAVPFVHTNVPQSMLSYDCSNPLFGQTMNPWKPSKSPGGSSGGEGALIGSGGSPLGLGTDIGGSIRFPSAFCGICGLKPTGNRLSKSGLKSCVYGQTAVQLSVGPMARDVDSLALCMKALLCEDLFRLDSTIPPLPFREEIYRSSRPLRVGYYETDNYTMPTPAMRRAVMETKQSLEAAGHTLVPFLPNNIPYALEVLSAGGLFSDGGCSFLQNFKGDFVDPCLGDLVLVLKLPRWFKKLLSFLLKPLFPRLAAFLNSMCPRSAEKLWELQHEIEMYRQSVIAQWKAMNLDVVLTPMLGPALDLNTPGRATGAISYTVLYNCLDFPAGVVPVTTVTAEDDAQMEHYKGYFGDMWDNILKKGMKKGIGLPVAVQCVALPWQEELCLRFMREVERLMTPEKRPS

SMILES | inhibition at 1 µM (MAGL [1]) | inhibition at 1 µM (MAGL [2]) | inhibition at 1 µM (FAAH [3]) | inhibition at 1 µM (FAAH [4]) | IC50 (FAAH [3]) | inhibition at 10 µM (MAGL [1]; read-out: MAGL % inh. (human) at 10 uM) | inhibition at 10 µM (FAAH [3]; read-out: FAAH % inh. (human) at 10 uM)
O=C(O)c1ccn(C(=O)N2CCN(Cc3cccc(-c4ncccn4)c3)CC2)n1 [Example 64, 1-(4-(3-(pyrimidin-2-yl)benzyl)piperazine-1-carbonyl)-1H-pyrazole-3-carboxylic acid] | > 75% | > 75% | 0 to 25% | 0 to 25% |  |  | 
O=C(O)c1ccn(C(=O)N2CCN(Cc3cccc(Oc4cncnc4)c3)CC2)n1 [Example 65, 1-(4-(3-(pyrimidin-5-yloxy)benzyl)piper-azine-1-carbonyl)-1H-pyrazole-3-carboxylic acid] | 50 to 75% | 25 to 50% | 0 to 25% | 0 to 25% |  |  | 
Cc1ccc(CN2CCN(C(=O)n3ccc(C(=O)O)n3)CC2)c(-c2nnco2)c1 [Example 66, 1-(4-(4-methyl-2-(1,3,4-oxadiazol-2-yl)benzyl)piperazine-1-carbonyl)-1H-pyrazole-3-carboxylic acid] | > 75% | > 75% | 0 to 25% | 0 to 25% |  |  | 
O=C(O)c1ccn(C(=O)N2CCN(Cc3ccc(Cl)cc3-c3nnco3)CC2)n1 [Example 67, 1-(4-(4-chloro-2-(1,3,4-oxadiazol-2-yl)benzyl)piperazine-1-carbonyl)-1H-pyrazole-3-carboxylic acid] | > 75% | > 75% | 0 to 25% | 0 to 25% |  |  | 
O=C(O)c1ccn(C(=O)N2CCN(Cc3ccc(OC(F)(F)F)cc3-c3nnco3)CC2)n1 [Example 68, 1-(4-(2-(1,3,4-oxadiazol-2-yl)-4-(trifluoromethoxy)benzyl)piperazine-1-carbonyl)-1H-pyrazole-3-carboxylic acid] | > 75% | > 75% | 0 to 25% | 0 to 25% |  |  | 
O=C(O)c1ccn(C(=O)N2CCN(Cc3ccc(C(F)(F)F)cc3-c3nnco3)CC2)n1 [Example 69, 1-(4-(2-(1,3,4-oxadiazol-2-yl)-4-(trifluoromethyl)benzyl)piperazine-1-carbonyl)-1H-pyrazole-3-carboxylic acid] | > 75% | > 75% | 0 to 25% | 0 to 25% |  |  | 
O=C(O)c1ccn(C(=O)N2CCC3(CCN(Cc4cc(F)cc(Cl)c4)C3)CC2)n1 [Example 70, 1-(2-(3-chloro-5-fluorobenzyl)-2,8-diazaspiro[4.5]decane-8-carbonyl)-1H-pyrazole-3-carboxylic acid] | 25 to 50% | 0 to 25% | 50 to 75% | 0 to 25% |  |  | 
Cc1c(CN2CCC3(CCN(C(=O)n4ccc(C(=O)O)n4)CC3)C2)cccc1C(F)(F)F [Example 71, 1-(2-(2-methyl-3-(trifluoromethyl)benzyl)-2,8-diazaspiro[4.5]decane-8-carbonyl)-1H-pyrazole-3-carboxylic acid] | > 75% | > 75% | 0 to 25% | 0 to 25% |  |  | 
O=C(O)c1ccn(C(=O)N2CCC3(CCN(Cc4cc(Cl)cc(C(F)(F)F)c4)C3)CC2)n1 [Example 72, 1-(2-(3-chloro-5-(trifluoromethyl)benzyl)-2,8-diazaspiro[4.5]decane-8-carbonyl)-1H-pyrazole-3-carboxylic acid] | > 75% | > 75% | 0 to 25% | 0 to 25% | 1 to 10 µM |  | 
O=C(O)c1ccn(C(=O)N2CCC3(CCN(Cc4cccc(-c5ccccc5)c4)C3)CC2)n1 [Example 73, 1-(2-([1,1′-biphenyl]-3-ylmethyl)-2,8-diazaspiro[4.5]decane-8-carbonyl)-1H-pyrazole-3-carboxylic acid] | > 75% | > 75% | 0 to 25% | 50 to 75% |  |  | 
O=C(O)c1ccn(C(=O)N2CCC3(CCN(Cc4c(Cl)cccc4C(F)(F)F)C3)CC2)n1 [Example 74, 1-(2-(2-chloro-6-(trifluoromethyl)benzyl)-2,8-diazaspiro[4.5]decane-8-carbonyl)-1H-pyrazole-3-carboxylic acid] | > 75% | > 75% | 0 to 25% | 0 to 25% |  |  | 
O=C(O)c1ccn(C(=O)N2CCC3(CCN(Cc4ccc(Oc5ccc(Cl)cc5)cc4)C3)CC2)n1 [Example 75, 1-(2-(4-(4-chlorophenoxy)benzyl)-2,8-diazaspiro[4.5]decane-8-carbonyl)-1H-pyrazole-3-carboxylic acid] | > 75% | 50 to 75% | 0 to 25% | 50 to 75% |  |  | 
O=C(O)c1ccn(C(=O)N2CCC3(CCN(Cc4ccc(C(F)(F)F)cc4Cl)C3)CC2)n1 [Example 77, 1-(2-(2-chloro-4-(trifluoromethyl)benzyl)-2,8-diazaspiro[4.5]decane-8-carbonyl)-1H-pyrazole-3-carboxylic acid] | > 75% | > 75% | 0 to 25% | 0 to 25% | 1 to 10 µM |  | 
O=C(O)c1ccn(C(=O)N2CCC3(CCN(Cc4ccc(C(F)(F)F)c(Cl)c4)C3)CC2)n1 [Example 78, 1-(2-(3-chloro-4-(trifluoromethyl)benzyl)-2,8-diazaspiro[4.5]decane-8-carbonyl)-1H-pyrazole-3-carboxylic acid] | > 75% | > 75% | 0 to 25% | 0 to 25% |  |  | 
O=C(O)c1ccn(C(=O)N2CCC3(CCN(Cc4cc(F)cc(F)c4)C3)CC2)n1 [Example 79, 1-(2-(3,5-difluorobenzyl)-2,8-diazaspiro[4.5]decane-8-carbonyl)-1H-pyrazole-3-carboxylic acid] |  | 0 to 25% |  | 0 to 25% |  | > 75% | 50 to 75%
CN(Cc1cc(Cl)ccc1C(F)(F)F)C1CCN(C(=O)n2ccc(C(=O)O)n2)CC1 [Example 81, 1-(4-((5-chloro-2-(trifluoromethyl)benzyl)(methyl)amino)piperidine-1-carbonyl)-1H-pyrazole-3-carboxylic acid] | > 75% | > 75% | 50 to 75% | 0 to 25% | 0.1 to 1 µM |  | 
O=C(O)c1ccn(C(=O)N2CCC3(CCCN3Cc3ccc(C(F)(F)F)cc3N3C4CCC3COC4)CC2)n1 [Example 82, 1-(1-(2-(3-oxa-8-azabicyclo[3.2.1]octan-8-yl)-4-(trifluoromethyl)benzyl)-1,8-diazaspiro[4.5]decane-8-carbonyl)-1H-pyrazole-3-carboxylic acid] | > 75% | > 75% | 0 to 25% | 0 to 25% |  |  | 
O=C(O)c1ccn(C(=O)N2CCN(Cc3cccc(Oc4cccc(Cl)c4)c3)CC2)n1 [Example 84, 1-(4-(3-(3-chlorophenoxy)benzyl)piperazine-1-carbonyl)-1H-pyrazole-3-carboxylic acid] | > 75% | > 75% | 0 to 25% | 50 to 75% | 0.1 to 1 µM |  | 
